In the assay the target is T1, IRE1α (Homo sapiens, UniProt O75460, D688N).
T1 construct: containing the kinase and RNase domains (KR, AA G547-1L977, D688N); made in house; host or cells: Sf9 insect cells
Kind of assay: IRE1α TR-FRET competition binding assay (IRE1α HTRF). The conditions noted are these: His-tagged IRE1α kinase dead construct (KR, D688N) 0.25 nM; Alexa fluor 647-labeled ATP competitive probe 2 nM; one hour at room temperature; read-out: IRE1α (alpha) HTRF (IC50). On the procedure:
Example 59. IRE1α TR-FRET Competition Binding Assay
To determine the affinity of compound binding to the kinase domain of IRE1α, a time-resolved fluorescence resonance energy transfer (TR-FRET) competition assay was used.
A His-tagged IRE1α kinase dead construct containing the kinase and RNase domains (KR, AA G547-1L977, D688N) was expressed in Sf9 insect cells. The purified protein (final concentration 0.25 nM) was pre-incubated with anti-His Europium labeled antibody (Life Technologies PV5596, final concentration 2 nM) for one hour at 4° C. in TR-FRET Assay Buffer (50 mM HEPES, pH 7.5, 10 mM MgCl2, 0.083 mM Brij 35, 1 mM DTT, and 0.1% bovine gamma globulin) prior to addition to test compounds. An Alexa fluor 647-labeled probe based on an ATP competitive inhibitor was added to a final concentration of 2 nM. Reactions were carried out for one hour at room temperature in a final volume of 20 μL in 384 well white ProxiPlates (Perkin Elmer 6008289). Binding of the probe to the IRE1α protein was detected in an Envision instrument (PerkinElmer) equipped with a TRF laser option and a LANCE/Delfia Dual/Bias D400/D630 mirror (Ex 347 nm, 1st Em 665 nm, 2nd Em 615 nm).

Broadly, the IC50 is the concentration that inhibits the measured activity by half.

Structures are written as SMILES. Where a name gives a salt, the structure may show the parent alone.

T1 sequence (O75460 547-977 D688N): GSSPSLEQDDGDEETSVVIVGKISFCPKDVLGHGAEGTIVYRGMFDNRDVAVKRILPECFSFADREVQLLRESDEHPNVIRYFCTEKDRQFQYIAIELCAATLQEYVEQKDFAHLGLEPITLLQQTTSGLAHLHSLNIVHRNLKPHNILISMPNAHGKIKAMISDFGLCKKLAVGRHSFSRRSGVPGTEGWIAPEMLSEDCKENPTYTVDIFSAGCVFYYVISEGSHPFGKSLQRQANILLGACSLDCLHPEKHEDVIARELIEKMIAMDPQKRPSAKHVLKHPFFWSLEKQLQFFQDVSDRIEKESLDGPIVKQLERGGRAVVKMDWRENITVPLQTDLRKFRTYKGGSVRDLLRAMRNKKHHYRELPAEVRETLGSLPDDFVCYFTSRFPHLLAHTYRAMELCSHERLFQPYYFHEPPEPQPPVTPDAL

`Cc1nc(NS(=O)(=O)Cc2ccc(F)cc2)ccc1-c1cc(C(F)F)c2nc(N[C@H]3CC[C@H](N(C)C)CC3)ncc2n1` [Compound 133, N-(5-(8-(Difluoromethyl)-2-(((1,4-trans)-4-(dimethylamino)cyclohexyl)amino)pyrido[3,2-d]pyrimidin-6-yl)-6-methylpyridin-2-yl)-1-(4-fluorophenyl)methanesulfonamide]: the IC50 was found to be 5200 pM.
`Cc1cc(-c2ccc(NS(=O)(=O)c3ccccc3Cl)nc2)nc2cnc(N[C@H]3CC[C@H](N(C)C)CC3)nc12` [Compound 135, 2-Chloro-N-(5-(2-(((1,4-trans)-4-(dimethylamino)cyclohexyl)amino)-8-methylpyrido[3,2-d]pyrimidin-6-yl)pyridin-2-yl)benzenesulfonamide]: the IC50 came to 320 pM.
With `CCc1cc(-c2ccc(NS(=O)(=O)c3ccccc3C(F)F)nc2C)nc2cnc(N[C@H]3CC[C@H](N(C)C)CC3)nc12` [Compound 147, 2-(Difluoromethyl)-N-(5-(2-(((1,4-trans)-4-(dimethylamino)cyclohexyl)amino)-8-ethylpyrido[3,2-d]pyrimidin-6-yl)-6-methylpyridin-2-yl)benzenesulfonamide] the figure was 280 pM; with `CCc1cc(-c2ccc(NS(=O)(=O)Cc3ccc(S(C)(=O)=O)cc3)c(F)c2)nc2cnc(N[C@H]3CC[C@H](N(C)C)CC3)nc12` [Compound 152, N-(4-(2-(((1,4-trans)-4-(Dimethylamino)cyclohexyl)amino)-8-ethylpyrido[3,2-d]pyrimidin-6-yl)-2-fluorophenyl)-1-(4-(methylsulfonyl)phenyl)methanesulfonamide], 120 pM.
The same measure for `Cc1nc(NS(=O)(=O)c2ccccc2Cl)ccc1-c1cc(C)c2nc(N[C@@H]3CNC[C@@H](F)C3)ncc2n1` [Compound 136, 2-Chloro-N-(5-(2-(((3S,5S)-5-fluoropiperidin-3-yl)amino)-8-methylpyrido[3,2-d]pyrimidin-6-yl)-6-methylpyridin-2-yl)benzenesulfonamide]: 14000 pM; for `O=S(=O)(Cc1ccccc1)Nc1ccc(-c2cnc3nc(N[C@@H]4CNC[C@@H](F)C4)ncc3c2)cc1F` [Compound 109, N-(2-Fluoro-4-(2-(((3S,5S)-5-fluoropiperidin-3-yl)amino)pyrido[2,3-d]pyrimidin-6-yl)phenyl)-1-phenylmethanesulfonamide]: 5700 pM.
With `Cc1cc(-c2ccc(NS(=O)(=O)c3ccccc3Cl)c(F)c2)nc2cnc(N[C@H]3CC[C@H](N(C)C)CC3)nc12` [Compound 128, 2-Chloro-N-(4-(2-(((1,4-trans)-4-(dimethylamino)cyclohexyl)amino)-8-methylpyrido[3,2-d]pyrimidin-6-yl)-2-fluorophenyl)benzenesulfonamide], the IC50 is 160 pM.
The same measure for `Cc1nc(NS(=O)(=O)CCC(F)(F)F)ccc1-c1cc(C)c2nc(N[C@H]3CC[C@H](N(C)C)CC3)ncc2n1` [Compound 126, N-(5-(2-(((1,4-trans)-4-(Dimethylamino)cyclohexyl)amino)-8-methylpyrido[3,2-d]pyrimidin-6-yl)-6-methylpyridin-2-yl)-3,3,3-trifluoropropane-1-sulfonamide]: 18000 pM.
Regarding `Cc1nc(NS(=O)(=O)c2ccccc2C#N)ccc1-c1cc(C)c2nc(N[C@H]3CC[C@H](N(C)C)CC3)ncc2n1` [Compound 159, 2-Cyano-N-(5-(2-(((1,4-trans)-4-(dimethylamino)cyclohexyl)amino)-8-methylpyrido[3,2-d]pyrimidin-6-yl)-6-methylpyridin-2-yl)benzenesulfonamide], the IC50 was 330 pM.
For `Cc1cc(-c2ccc(NC(=O)CC(C)C)c(F)c2)nc2cnc(N[C@H]3CC[C@H](N(C)C)CC3)nc12` [Compound 127, N-(4-(2-(((1,4-trans)-4-(Dimethylamino)cyclohexyl)amino)-8-methylpyrido[3,2-d]pyrimidin-6-yl)-2-fluorophenyl)-3-methylbutanamide], the IC50 is 140000 pM.
The same measure for `CCc1cc(-c2ccc(NS(=O)(=O)Cc3ccc(F)cc3)nc2OC)nc2cnc(N[C@H]3CC[C@H](N(C)C)CC3)nc12` [Compound 142, N-(5-(2-(((1,4-trans)-4-(Dimethylamino)cyclohexyl)amino)-8-ethylpyrido[3,2-d]pyrimidin-6-yl)-6-methoxypyridin-2-yl)-1-(4-fluorophenyl)methanesulfonamide]: 140 pM; for `Cc1cc(-c2cc(F)c(NS(=O)(=O)Cc3ccc(F)cc3)c(F)c2F)nc2cnc(N[C@H]3CC[C@H](N(C)C)CC3)nc12` [Compound 153, N-(4-(2-(((1,4-trans)-4-(Dimethylamino)cyclohexyl)amino)-8-methylpyrido[3,2-d]pyrimidin-6-yl)-2,3,6-trifluorophenyl)-1-(4-fluorophenyl)methanesulfonamide]: 160 pM; for `Cc1cc(-c2c(F)cc(NS(=O)(=O)Cc3ccc(F)cc3)cc2F)nc2cnc(N[C@H]3CC[C@H](N(C)C)CC3)nc12` [Compound 140, N-(4-(2-(((1,4-trans)-4-(Dimethylamino)cyclohexyl)amino)-8-methylpyrido[3,2-d]pyrimidin-6-yl)-3,5-difluorophenyl)-1-(4-fluorophenyl)methanesulfonamide]: 4500 pM.
As to `Cc1cc(NS(=O)(=O)c2ccccc2Cl)ncc1-c1cc(C)c2nc(N[C@H]3CC[C@H](N(C)C)CC3)ncc2n1` [Compound 149, 2-Chloro-N-(5-(2-(((1,4-trans)-4-(dimethylamino)cyclohexyl)amino)-8-methylpyrido[3,2-d]pyrimidin-6-yl)-4-methylpyridin-2-yl)benzenesulfonamide], the IC50 was found to be 3300 pM.
`Cc1cc(-c2cc(F)c(NS(=O)(=O)Cc3ccc(F)cc3)cc2F)nc2cnc(N[C@H]3CC[C@H](N(C)C)CC3)nc12` [Compound 137, N-(4-(2-(((1,4-trans)-4-(Dimethylamino)cyclohexyl)amino)-8-methylpyrido[3,2-d]pyrimidin-6-yl)-2,5-difluorophenyl)-1-(4-fluorophenyl)methanesulfonamide]: the IC50 amounted to 230 pM.
The same measure for `CC(Oc1nc2nc(N[C@@H]3CNC[C@@H](F)C3)ncc2cc1-c1ccc(NS(=O)(=O)Cc2ccccc2)c(F)c1F)C(F)F` (single isomer, unassigned) [Compound 103]: 1100 pM; for `Cc1cc(-c2cc(F)c(NS(=O)(=O)c3ccccc3Cl)c(F)c2F)nc2cnc(N[C@H]3CC[C@H](N(C)C)CC3)nc12` [Compound 155, 2-Chloro-N-(4-(2-(((1,4-trans)-4-(dimethylamino)cyclohexyl)amino)-8-methylpyrido[3,2-d]pyrimidin-6-yl)-2,3,6-trifluorophenyl)benzenesulfonamide]: 190 pM; for `CCCS(=O)(=O)Nc1ccc(-c2cc(C)c3nc(N[C@H]4CC[C@H](N(C)C)CC4)ncc3n2)cc1F` [Compound 112, N-(4-(2-(((1,4-trans)-4-(Dimethylamino)cyclohexyl)amino)-8-methylpyrido[3,2-d]pyrimidin-6-yl)-2-fluorophenyl)propane-1-sulfonamide formate]: 320 pM.

Source of the values: US20220204498A1, “PYRIDO-PYRIMIDINYL COMPOUNDS AND METHODS OF USE” (Genentech, Inc., priority 2019, published 2022).
